Reference: US10030012B2, “Piperidin-1-yl and azepin-1-yl carboxylates as muscarinic M4 receptor agonists” (Heptares Therapeutics Limited, priority 2013, dated 2018)
pEC50: −log10 of the molar value.

What was measured:
human M4 receptor = human M4 receptor (Homo sapiens (Human), UniProt P08173); experiment: In vitro M4 functional assay (intracellular calcium, FLiPR Tetra); format: cell-based; settings: for Emax: relative efficacy to an EC100 concentration of acetylcholine, read-out: M4 % RE
Procedure: (§1) In Vitro M4 &M2 Functional Assay
(§2) The functional activity of compounds at the M4 and M2 receptors was determined by measuring changes in the level of intracellular calcium ions caused by signalling cascades mediated by the receptor. Intracellular Calcium levels were measured using a calcium sensitive fluorescent dye, calcium 5 (Molecular Devices) The changes in fluorescence were monitored by a fluorescent imager, FLiPR Tetra (Molecular devices). Increases in intracellular calcium were readily detected upon activation of both receptors by the muscarinic receptor agonist Acetylcholine.
(§3) CHOK1 cells stably expressing human M4 or M2 receptor and co-expressing the accessory g-protein Gα16 were routinely grown as monolayers in Hams-F12 medium (Invitrogen) supplemented with 10% foetal bovine serum (FBS) (Hyclone), 500 ug/mL Geneticin and 250 ug/mL zeocin (both invitrogen) in 5% CO2 at 37° C. Once confluent is cells cryopreserved by freezing at −186° C. in freezing solution (90% FBS 10% DMSO) (Sigma-Aldrich Co.). Twenty-four hours prior to testing cells resuscitated and freezing media removed via centrifugation, cells then seeded in a black walled clear bottom 384 well plates (Corning) at a density of 15,000 cells/well in Hams F12 media supplemented with 10% FBS. On the day of assay, growth media was removed and replaced with 63 μl of Calcium 5 dye solution (Molecular Devices) in assay buffer (HBSS, 20 mM HEPES, 0.1% BSA, 1 mM Probenecid pH7.4 (Sigma-Aldrich Co.)) per well (each vial of Calcium 5 resuspended in 27 mL of assay buffer). Cells were then incubated for 45 minutes at 37° C., 5% CO2. Compound was serially diluted in DMSO (log/half log) before being diluted 1:20 with assay buffer. 7 μl of compound diluted in assay buffer was then added to cells on FLiPR tetra and fluorescence intensity measured for 5 minutes. EC50 values for compounds were determined from ten point half log scale dose-response studies and represent the concentration of compound required to […] maximal response. Curves were generated using the average of duplicate wells for each data point and analyzed using non-linear regression of four parameter dose response. Percentage Relative efficacy (RE) to an EC100 concentration of acetylcholine was reported for all compounds. The results are set out in Table 3 below in which the term “No Response” means that there was no significant response of calcium flux in the assay indicative of agonism.

human M2 receptor = human M2 receptor (Homo sapiens (Human), UniProt P08172); experiment: In vitro M2 functional assay (intracellular calcium, FLiPR Tetra); format: cell-based; settings: for M2 EC50 / pEC50: CHOK1 cells stably expressing human M2 receptor and Gα16, calcium flux, No Response = no significant response of calcium flux indicative of agonism; for activation at 10 µM: response at 10 μM compound, relative to an EC100 concentration of acetylcholine, read-out: M2 % RE @ 10 μM
Procedure: as §1, §2, §3

[1] = CHOK1 cells stably expressing human M4 receptor and Gα16, calcium flux

Chain of human M4 receptor (P08173 whole entry): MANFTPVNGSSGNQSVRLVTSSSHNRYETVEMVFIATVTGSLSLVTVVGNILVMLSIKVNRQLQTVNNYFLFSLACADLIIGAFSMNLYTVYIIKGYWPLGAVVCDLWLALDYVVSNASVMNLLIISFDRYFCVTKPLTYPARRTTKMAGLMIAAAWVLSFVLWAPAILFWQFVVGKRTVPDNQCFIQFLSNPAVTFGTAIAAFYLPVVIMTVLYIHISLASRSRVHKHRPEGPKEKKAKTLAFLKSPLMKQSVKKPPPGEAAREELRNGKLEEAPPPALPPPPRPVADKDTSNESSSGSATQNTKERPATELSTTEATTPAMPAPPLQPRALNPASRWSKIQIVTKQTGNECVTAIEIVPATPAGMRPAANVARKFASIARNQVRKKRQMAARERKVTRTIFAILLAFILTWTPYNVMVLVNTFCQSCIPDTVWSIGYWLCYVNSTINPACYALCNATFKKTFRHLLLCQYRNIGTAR
Chain of human M2 receptor (P08172 whole entry): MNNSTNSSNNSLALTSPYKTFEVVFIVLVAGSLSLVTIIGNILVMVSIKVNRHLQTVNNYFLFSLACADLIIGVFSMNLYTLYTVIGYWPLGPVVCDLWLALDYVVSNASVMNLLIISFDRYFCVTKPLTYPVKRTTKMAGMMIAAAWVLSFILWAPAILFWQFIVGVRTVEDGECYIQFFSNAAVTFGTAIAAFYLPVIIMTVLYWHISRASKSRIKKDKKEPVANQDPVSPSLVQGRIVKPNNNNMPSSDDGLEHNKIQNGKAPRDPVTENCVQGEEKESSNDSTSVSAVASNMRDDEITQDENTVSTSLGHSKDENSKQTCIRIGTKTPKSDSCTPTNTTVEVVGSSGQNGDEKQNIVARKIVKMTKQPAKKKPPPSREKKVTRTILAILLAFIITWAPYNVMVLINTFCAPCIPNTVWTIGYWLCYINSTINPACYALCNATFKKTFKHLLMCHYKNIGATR

Structure (SMILES) | pEC50 (human M4 receptor; [1]) | Emax (human M4 receptor) [%] | M2 EC50 (human M2 receptor) | pEC50 (human M2 receptor) | activation at 10 µM (human M2 receptor) [%] | M2 % RE (human M2 receptor; relative efficacy to an EC100 concentration of acetylcholine) [%] | M4 EC50 (human M4 receptor; [1])
CCOC(=O)N1CCCC(N2CCC(c3ccncc3OC)CC2)CC1 (stereo not shown) [Example 44, Ethyl 4-[4-(3-methoxypyridin-4-yl)piperidin-1-yl]azepane-1-carboxylate] | 6.43 | 52 | No Response | – | – | – | –
CCOC(=O)N1CCCC(N2CCC(n3nccc3-c3ccc(Cl)cc3)CC2)CC1 (stereo not shown) [Example 5, Ethyl 4-{4-[5-(4-chlorophenyl)-1H-pyrazol-1-yl]piperidin-1-yl}azepane-1-carboxylate] | 6.60 | 49 | – | < 5.00 | 25 | – | –
CCOC(=O)N1CCCC(N2CCC(c3cc[nH]n3)CC2)CC1 (stereo not shown) [Example 6, Ethyl 4-[4-(1H-pyrazol-3-yl)piperidin-1yl]azepane-1-carboxylate] | 6.72 | 53 | No Response | – | – | – | –
CCOC(=O)N1CCCC(N2CCC(n3nccc3C(F)(F)F)CC2)CC1 (stereo not shown) [Example 69, Ethyl 4-{4-[5-(trifluoromethyl)-1H-pyrazol-1-yl]piperidin-1-yl}azepane-1-carboxylate] | 6.20 | 63 | – | < 5.00 | 21 | – | –
CCOC(=O)N1CCC[C@H](N2CCC(n3cccn3)CC2)CC1 [Example 81, Ethyl (4S)-4-[4-(1H-pyrazol-1-yl)piperidin-1-yl]azepane-1-carboxylate] | 7.07 | 83 | No response | – | – | – | –
CCOC(=O)N1CCCC(N2CCC(n3nccc3C(=O)N(C)C)CC2)CC1 (stereo not shown) [Example 21, Ethyl 4-{4-[5-(dimethylcarbamoyl)-1H-pyrazol-1-yl]piperidin-1-yl}azepane-1-carboxylate] | 5.57 | 45 | No Response | – | – | – | –
CCOC(=O)N1CCCC(N2CCC(c3cccnc3OCc3cc(C)no3)CC2)CC1 (stereo not shown) [Example 54, Ethyl 4-(4-{2-[(3-methyl-1,2-oxazol-5-yl)methoxy]pyridin-3-yl}piperidin-1-yl)azepane-1-carboxylate] | 7.70 | 94 | No Response | – | – | – | –
CCOC(=O)N1CCC(CN2CCC(n3nc(C)cc3C)C2)CC1 (stereo not shown) [Example 79, Ethyl 4-{[3-(3,5-dimethyl-1H-pyrazol-1-yl)pyrrolidin-1-yl]methyl}piperidine-1-carboxylate] | 6.47 | 50 | No Response | – | – | – | –
CCOC(=O)N1CCCC(N2CCC(c3cccnc3C)CC2)CC1 (stereo not shown) [Example 41, Ethyl 4-[4-(2-methylpyridin-3-yl)piperidin-1-yl]azepane-1-carboxylate] | 6.59 | 54 | No Response | – | – | – | –
CCOC(=O)N1CCC[C@H](N2CCC(c3nccn3C)CC2)CC1 [Example 83, Ethyl (4S)-4-[4-(1-methyl-1H-imidazol-2-yl)piperidin-1-yl]azepane-1-carboxylate] | 5.82 | 55 | No response | – | – | – | –
CCOC(=O)N1CCCC(N2CCC(c3cncnc3C)CC2)CC1 (stereo not shown) [Example 75, Ethyl 4-[4-(4-methylpyrimidin-5-yl)piperidin-1-yl]azepane-1-carboxylate] | 6.00 | 52 | No Response | – | – | – | –
CCOC(=O)N1CCCC(N2CCC(n3cc(-c4ccc(Cl)cc4)cn3)CC2)CC1 (stereo not shown) [Example 8, Ethyl 4-{4-[4-(4-chlorophenyl)-1H-pyrazol-1-yl]piperidin-1-yl}azepane-1-carboxylate] | 6.49 | 59 | No Response | – | – | – | –
CCOC(=O)N1CCCC(N2CCC(c3cccnc3C3CC3)CC2)CC1 (stereo not shown) [Example 66, Ethyl 4-[4-(2-cyclopropylpyridin-3-yl)piperidin-1-yl]azepane-1-carboxylate] | 6.92 | 84 | No Response | – | – | – | –
CCOC(=O)N1CCCC(N2CCC(n3nccc3C)CC2)CC1 (stereo not shown) [Example 12, Ethyl 4-[4-(5-methyl-1H-pyrazol-1-yl)piperidin-1-yl]azepane-1-carboxylate] | 6.28 | 82 | – | < 5.00 | 28 | – | –
CCOC(=O)N1CCCC(N2CCC(c3cccnc3-c3cnn(C(C)C)c3)CC2)CC1 (stereo not shown) [Example 61, Ethyl 4-(4-{2-[1-(propan-2-yl)-1H-pyrazol-4-yl]pyridin-3-yl}piperidin-1-yl)azepane-1-carboxylate] | 6.82 | 66 | No Response | – | – | – | –
CCOC(=O)N1CCCC(N2CCC(c3nccnc3N(C)C)CC2)CC1 (stereo not shown) [Example 49, Ethyl 4-{4-[3-(dimethylamino)pyrazin-2-yl]piperidin-1-yl}azepane-1-carboxylate] | 6.68 | 53 | No Response | – | – | – | –
CCOC(=O)N1CCCC(N2CCC(c3nccn3C)CC2)CC1 (stereo not shown) [Example 9, Ethyl 4-[4-(1-methyl-1H-imidazol-2-yl)piperidin-1-yl]azepane-1-carboxylate] | 5.98 | 62 | No Response | – | – | – | –
CCOC(=O)N1CCCC(N2CCC(c3nc(C)cnc3C)CC2)CC1 (stereo not shown) [Example 59, Ethyl 4-[4-(3,6-dimethylpyrazin-2-yl)piperidin-1-yl]azepane-1-carboxylate] | 6.28 | 30 | No Response | – | – | – | –
CCOC(=O)N1CCCC(N2CCC(n3nccc3COC)CC2)CC1 (stereo not shown) [Example 23, Ethyl 4-{4-[5-(methoxymethyl)-1H-pyrazol-1-yl]piperidin-1-yl}azepane-1-carboxylate] | 6.12 | 67 | No Response | – | – | – | –
CCOC(=O)N1CCCC(N2CCC(c3cncc(OC)c3)CC2)CC1 (stereo not shown) [Example 45, Ethyl 4-[4-(5-methoxypyridin-3-yl)piperidin-1-yl]azepane-1-carboxylate] | 6.34 | 25 | No Response | – | – | – | –
CCOC(=O)N1CCC(N2CCC(c3nccs3)CC2)CC1 [Example 68, Ethyl 4-[4-(1,3-thiazol-2-yl)piperidin-1-yl]piperidine-1-carboxylate] | 6.27 | 45 | No Response | – | – | – | –
CCOC(=O)N1CCCC(N2CCC(n3nccc3-c3cnn(C(C)C)c3)CC2)CC1 (stereo not shown) [Example 22, Ethyl 4-(4-{5-[1-(propan-2-yl)-1H-pyrazol-4-yl]-1H-pyrazol-1-yl}piperidin-1-yl)azepane-1-carboxylate] | 6.70 | 68 | – | 6.17 | – | 38 | –
CCOC(=O)N1CCC(N2CCC(c3ccnc(C)n3)CC2)CC1 [Example 36, Ethyl 4-[4-(2-methylpyrimidin-4-yl)piperidin-1-yl]piperidine-1-carboxylate] | 5.17 | 25 | No Response | – | – | – | –
CCOC(=O)N1CCC[C@@H](N2CCC(n3cccn3)CC2)CC1 [Example 82, Ethyl (4R)-4-[4-(1H-pyrazol-1-yl)piperidin-1-yl]azepane-1-carboxylate] | 6.34 | 80 | – | – | – | – | –
CCOC(=O)N1CCC[C@@H](N2CCC(c3nccn3C)CC2)CC1 [Example 84, Ethyl (4R)-4-[4-(1-methyl-1H-imidazol-2-yl)piperidin-1-yl]azepane-1-carboxylate] | – | – | – | – | – | – | No response
